We go through 1 compound from PMC11358582, “Discovery of a potential bladder cancer inhibitor CHNQD-01281 by regulating EGFR and promoting infiltration of cytotoxic T cells” (Marine Life Science & Technology, 2024).

The term IC90 denotes the point of the concentration-response curve where the effect stands at 90%. High values mean a need for much substance, low ones an effect from little substance. In general, IC50 refers to the concentration that inhibits the measured activity by half. Higher therefore signals a need for much substance. By solubility is commonly meant the concentration that dissolves in the medium under given conditions. The low end stands for little dissolved substance, the high end for much dissolved substance.

Series [1] concerns human hepatocyte cell line L-02. In words: MTT cell proliferation assay. The series is classed as cell-based. Conditions: L-02, MTT. The procedure:
Human tumor cell lines Eca-109, BEL-7402, BxPC-3, HCT-116, HT-29, T24, HCT-8, SGC-7901, DLD-1, TE-1, BT-549, MGC-803 and human hepatocyte cell line L-02 were cultured in Roswell Park Memorial Institute (RPMI) 1640. HuH-7 and SW-480 were cultured in Dulbecco’s modified Eagle’s medium (DMEM). J82, HepG2, Hela, U87 were cultured in Minimum Essential Medium (MEM). Murine bladder cancer cell line, MB49, was cultured in DMEM. The above-mentioned culture medium was provided by GIBCO (Grand Island, USA), contained 10% fetal bovine serum (PAN, Germany), 10 mg/mL of streptomycin, and 10 kU/mL penicillin (Beyotime, China).
Cells were seeded in 96-well plates and incubated with indicated concentrations of CHNQD-01281 for indicated periods. Next, medium was discarded and MTT (5 mg/mL) was added to each well. The cells were incubated at 37 °C for another 4 h. After that, supernatant was discarded, and DMSO was added and incubated at 37 °C for 15 min. Finally, absorbance was measured at 570 nm (Molecular Devices, USA).
Thus, the bladder cancer cell lines J82 and T24 were further investigated and treated by CHNQD-01281 under gradient concentrations (0.031−1.00 µmol/L) and times (24, 72 and 120 h) to measure proliferation activities (Fig. 2B). However, the inhibition of T24 or J82 cell lines by CHNQD-01281 was less than 50% even at the highest concentration of 1 µmol/L for 24 h. […] Therefore, CHNQD-01281 has a higher selectivity index compared to BFA.

The nature of series [2]: Tissue distribution in tumor and main organs. The series is classed as in vivo, C57BL/6 mice. Conditions: tumor, heart, duodenum and spleen. The procedure:
To further investigate the safety profile of CHNQD-01281 in vivo, the HE staining of the heart, liver, spleen, lung, kidney and duodenum of C57 mice were analyzed after the single dose of CHNQD-01281 (100 mg/kg, i.p.). […] The distribution of CHNQD-01281 in tumor and main organs of C57BL/6 mice was then analyzed.
Fig. S14. Safety profile and tissue distribution of CHNQD-01281 in vivo. A Representative H&E staining images (scale bar: 50 μm) of main organs from vehicle and CHNQD-01281 (100 mg/kg, ip.) treated C57BL/6 mice (n = 3). B Bodyweight evaluation of mouse after treatment with vehicle and CHNQD-01281. C Tissue distribution of CHNQD-01281 in C57BL/6 mice (n = 3).

Series [3] in a line: Solubility in selected aqueous solutions. Type of series: physicochemical. From the text:
The problem of poor water solubility is one of the factors that seriously restricts the preclinical application of BFA. Therefore, from the perspective of pharmaceutics, it is of great application value to explore safe and effective methods to improve its solubility. Based on the previous screening of commonly used solvents, solubilizers and co-solvents for BFA and its derivatives, we explored the solubility of CHNQD-01281, which was compared and assessed in selected aqueous solutions (Table 1). Saline or PBS were commonly used solvents, but the solubility of BFA or CHNQD-01281 was less than 1 mg/mL when used alone. No significant improvement in solubility was observed after the addition of DMSO or PEG400. […] More importantly, the solution system of CHNQD-01281 with saline/DMSO/solutol HS-15 (85/5/10) can fully meet the needs of follow-up experiments in vivo, such as pharmacodynamics, pharmacokinetics and safety evaluation.

In brackets after ≈: the same amount, converted by molar mass. Some results are limits rather than exact numbers.

In series [1], `C[C@H]1CCC/C=C/[C@@H]2C[C@H](O)C[C@H]2[C@H](OC(=O)/C=C/c2cccnc2)/C=C/C(=O)O1` [CHNQD-01281, Brefeldin A 4-O-3-(pyridin-3-yl) acrylate] displayed an IC90 of 2520 nM. In series [1] (72 h), this compound registered a 50% inhibitory concentration (IC50) of 1160 nM. Also, in series [2], the “time of rapid concentration elimination” value was at most 1 h. Besides, the solubility in series [3] (Saline or PBS used alone) is below 1000 µg/mL; in series [3] (aqueous with cosolvent or surfactant or cyclodextrin, No. 2: Saline/DMSO 95/5, pH 7.4, 25 °C), below 1000 µg/mL; in series [3] (aqueous with cosolvent or surfactant or cyclodextrin, No. 3: PBS/DMSO 95/5, pH 7.4, 25 °C) it was below 1000 µg/mL; in series [3] (aqueous with cosolvent or surfactant or cyclodextrin, No. 4: Saline/PEG400 95/5, pH 7.4, 25 °C), below 1000 µg/mL; in series [3] (aqueous with cosolvent or surfactant or cyclodextrin, No. 5: Saline/PEG400 80/20, pH 7.4, 25 °C), below 1000 µg/mL; in series [3] (aqueous with cosolvent or surfactant or cyclodextrin, No. 6: Saline/DMSO/solutol HS-15 85/5/10, pH 7.4, 25 °C), 12000 to 15000 µg/mL (≈ 29200 to 36500 µM). The solubility in series [3] (aqueous with cosolvent or surfactant or cyclodextrin, No. 7: Saline/solutol HS-15 95/5, pH 7.4, 25 °C) is below 1000 µg/mL; in series [3] (aqueous with cosolvent or surfactant or cyclodextrin, No. 8: Saline/solutol HS-15 90/10, pH 7.4, 25 °C), below 1000 µg/mL; in series [3] (saline or isotonic, No. 1: Saline (0.9% NaCl) 100, pH 7.4, 25 °C) it was below 1000 µg/mL. Moreover, the “improvement of solubility versus BFA” value in series [3] (saline with 5% DMSO and 10% solutol HS-15) is on record as “approximately tenfold”.
